How the values were obtained:
[1] = biological target: T1, panel of 442 kinases (Homo sapiens, UniProt Q9Y2K2); assay type: binding; conditions: Compound Concentration 10 µM
T1 construct: purchased KINOMEscan
From the text: (§1) We assessed the selectivity of members of this scaffold using the KINOMEscan methodology across a near comprehensive panel of 442 kinases [[18,27]].

[2] = biological target: T2, panel of 442 kinases (Homo sapiens, UniProt Q8IVH8); assay type: binding; conditions: Compound Concentration 10 µM
T2 construct: purchased KINOMEscan
T2 sequence (Q8IVH8 1-894): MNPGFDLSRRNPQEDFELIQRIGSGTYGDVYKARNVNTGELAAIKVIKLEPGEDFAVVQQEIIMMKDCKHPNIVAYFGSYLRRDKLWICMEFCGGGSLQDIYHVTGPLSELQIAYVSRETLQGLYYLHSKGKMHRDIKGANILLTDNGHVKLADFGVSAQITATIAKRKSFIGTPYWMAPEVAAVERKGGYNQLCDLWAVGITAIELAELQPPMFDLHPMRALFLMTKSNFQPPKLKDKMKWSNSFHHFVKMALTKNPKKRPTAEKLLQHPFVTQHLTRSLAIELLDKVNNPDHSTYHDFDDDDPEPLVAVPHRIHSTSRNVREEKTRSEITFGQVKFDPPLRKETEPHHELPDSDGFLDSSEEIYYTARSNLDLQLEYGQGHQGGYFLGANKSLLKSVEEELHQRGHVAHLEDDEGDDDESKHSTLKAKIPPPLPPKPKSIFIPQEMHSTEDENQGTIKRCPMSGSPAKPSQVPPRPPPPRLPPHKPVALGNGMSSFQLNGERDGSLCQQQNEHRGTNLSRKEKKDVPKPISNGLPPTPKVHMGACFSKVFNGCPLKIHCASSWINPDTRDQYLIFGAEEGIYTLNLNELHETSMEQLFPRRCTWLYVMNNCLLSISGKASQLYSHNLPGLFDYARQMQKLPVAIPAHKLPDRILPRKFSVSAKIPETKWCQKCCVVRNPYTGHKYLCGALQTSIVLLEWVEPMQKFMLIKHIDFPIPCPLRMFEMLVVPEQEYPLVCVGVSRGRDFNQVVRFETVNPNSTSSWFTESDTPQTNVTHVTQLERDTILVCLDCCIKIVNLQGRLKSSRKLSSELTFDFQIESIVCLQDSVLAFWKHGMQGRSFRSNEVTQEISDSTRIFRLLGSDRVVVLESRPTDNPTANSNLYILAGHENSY
From the text: as §1

T1 sequence (Q9Y2K2 whole entry): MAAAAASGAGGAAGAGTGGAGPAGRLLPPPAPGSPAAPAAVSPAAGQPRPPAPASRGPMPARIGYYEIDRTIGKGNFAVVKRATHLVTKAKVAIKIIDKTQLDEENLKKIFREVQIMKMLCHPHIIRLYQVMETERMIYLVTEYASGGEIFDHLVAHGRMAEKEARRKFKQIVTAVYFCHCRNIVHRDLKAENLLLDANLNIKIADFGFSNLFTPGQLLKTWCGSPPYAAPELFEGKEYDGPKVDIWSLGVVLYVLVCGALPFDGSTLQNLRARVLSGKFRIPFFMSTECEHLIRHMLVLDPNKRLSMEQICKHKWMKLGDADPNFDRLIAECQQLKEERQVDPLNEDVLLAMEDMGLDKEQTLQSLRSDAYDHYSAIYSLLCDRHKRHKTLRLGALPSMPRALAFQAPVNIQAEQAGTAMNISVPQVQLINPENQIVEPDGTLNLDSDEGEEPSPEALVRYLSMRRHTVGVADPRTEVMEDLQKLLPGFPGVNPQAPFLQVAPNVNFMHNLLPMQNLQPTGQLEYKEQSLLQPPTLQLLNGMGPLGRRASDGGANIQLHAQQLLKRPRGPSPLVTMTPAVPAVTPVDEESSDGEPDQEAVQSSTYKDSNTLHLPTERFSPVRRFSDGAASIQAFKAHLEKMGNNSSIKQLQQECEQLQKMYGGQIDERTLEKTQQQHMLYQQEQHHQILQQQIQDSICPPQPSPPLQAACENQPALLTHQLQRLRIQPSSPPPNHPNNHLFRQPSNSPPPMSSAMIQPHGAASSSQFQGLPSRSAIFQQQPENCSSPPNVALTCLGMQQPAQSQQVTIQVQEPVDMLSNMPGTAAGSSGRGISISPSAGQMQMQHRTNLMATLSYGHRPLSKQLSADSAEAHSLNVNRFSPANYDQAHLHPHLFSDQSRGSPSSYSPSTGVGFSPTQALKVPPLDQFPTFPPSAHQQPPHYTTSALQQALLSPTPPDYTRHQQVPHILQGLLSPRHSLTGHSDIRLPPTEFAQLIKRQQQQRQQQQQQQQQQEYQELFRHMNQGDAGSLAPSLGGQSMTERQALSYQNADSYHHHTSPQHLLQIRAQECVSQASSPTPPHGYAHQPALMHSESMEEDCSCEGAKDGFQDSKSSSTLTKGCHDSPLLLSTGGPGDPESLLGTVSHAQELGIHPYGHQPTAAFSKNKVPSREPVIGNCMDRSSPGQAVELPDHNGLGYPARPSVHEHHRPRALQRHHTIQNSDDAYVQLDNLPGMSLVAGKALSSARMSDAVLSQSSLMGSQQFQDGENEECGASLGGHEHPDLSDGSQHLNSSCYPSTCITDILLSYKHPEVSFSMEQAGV

CCOc1cc(C(=O)N2CCC(N3CCN(C)CC3)CC2)ccc1Nc1ncc2c(n1)N(C1CCCC1)c1ccccc1C(=O)N2C [Compound 26]
KINOMEscan: QSK [1]: 100 | KINOMEscan: MAP4K3 [2]: 98

COc1cc(C(=O)N2CCC(N3CCN(C)CC3)CC2)ccc1Nc1ncc2c(n1)N(C1CCCC1)c1ccccc1C(=O)N2C [Compound 25, 11-cyclopentyl-2-((2-methoxy-4-(4-(4-methylpiperazin-1-yl)piperidine-1-carbonyl)phenyl)amino)-5-methyl-5H-benzo[e]pyrimido[5,4-b][1,4]diazepin-6(11H)-one]
KINOMEscan: QSK [1]: 100 | KINOMEscan: MAP4K3 [2]: 100

COc1cc(C(=O)N2CCC(N3CCN(C)CC3)CC2)ccc1Nc1ncc2c(n1)N(C)c1ccccc1C(=O)N2C [15 (LRRK2-IN-1)]
KINOMEscan: QSK [1]: 100 | KINOMEscan: MAP4K3 [2]: 71
